Test results taken from ChEMBL document CHEMBL1629680, “Role for Fks1 in the intrinsic echinocandin resistance of Fusarium solani as evidenced by hybrid expression in Saccharomyces cerevisiae” (2009).
Converted amounts (≈) assume the structure as drawn. *1 amine or outer side, *2 acyl side, *3 side chain or, on linkers, in order; H or OH if unused. Where a SMILES comes first, the peptide text is derived from it. Bridges are numbered along the chain shown (N, C = ends). [ ]: non-standard residue; d: D form. The star is where a group is joined. hTyr(3S-OH,4S-OH,3'-OSO3H) = N[C@H](C(=O)O)[C@H](O)[C@@H](O)c1ccc(O)c(OS(=O)(=O)O)c1; Orn(4R-OH,5R-OH) = O=C([C@H](C[C@@H](O)[C@@H](O)N[*:3])N[*:1])[*:2]; Pro(3S-OH,4S-Me) = C[C@H]1CN[C@H](C(=O)O)[C@H]1O; X1 = CCCCCOc1ccc(-c2cc(-c3ccc(C(=O)*)cc3)no2)cc1; Gln(3R-OH) = NC(=O)C[C@@H](O)[C@H](N)C(=O)O; Hyp = O=C(O)[C@@H]1C[C@@H](O)CN1

Assays:
Type in all cases: functional
[1] = system: Saccharomyces cerevisiae; assay: Antimicrobial activity against Saccharomyces cerevisiae BY4742 fks1-F639Y mutant after 24 hrs by broth microdilution assay; details: BY4742, 24 h
[2] = system: Saccharomyces cerevisiae; assay: Antimicrobial activity against Saccharomyces cerevisiae BY4742 fks1-F639F wild type after 24 hrs by broth microdilution assay; details: BY4742, 24 h
[3] = system: Saccharomyces cerevisiae; assay: Antimicrobial activity against Saccharomyces cerevisiae BY4742 containing Aspergillus fumigatus fks1617-649 hybrid after 24 hrs by broth microdilution assay; details: BY4742, 24 h
[4] = system: Saccharomyces cerevisiae; assay: Antimicrobial activity against Saccharomyces cerevisiae BY4742 containing Fusarium solani fks1617-649 with F639 mutant after 24 hrs by broth microdilution assay; details: BY4742, 24 h
[5] = system: Nakaseomyces glabratus; assay: Antimicrobial activity against Candida glabrata containing FSK2 after 24 hrs by broth microdilution assay
[6] = system: Saccharomyces cerevisiae; assay: Antimicrobial activity against Saccharomyces cerevisiae BY4742 containing Candida glabrata fks1-CgR453-649 hybrid after 24 hrs by broth microdilution assay; details: BY4742, 24 h
[7] = system: Saccharomyces cerevisiae; assay: Antimicrobial activity against Saccharomyces cerevisiae BY4742 containing Fusarium solani fks1617-649 hybrid after 24 hrs by broth microdilution assay; details: BY4742, 24 h
[8] = system: Saccharomyces cerevisiae; assay: Antimicrobial activity against Saccharomyces cerevisiae BY4742 containing Candida glabrata fks1-CgS453-649 hybrid after 24 hrs by broth microdilution assay; details: BY4742, 24 h
[9] = system: Saccharomyces cerevisiae; assay: Antimicrobial activity against Saccharomyces cerevisiae BY4742 containing Fusarium solani fks1-FS453-649 hybrid after 24 hrs by broth microdilution assay; details: BY4742, 24 h
[10] = system: Saccharomyces cerevisiae; assay: Antimicrobial activity against Saccharomyces cerevisiae BY4742 transfected with Scedosporium prolificans FSK1 gene sequence after 24 hrs by broth microdilution assay; details: BY4742, 24 h
[11] = system: Saccharomyces cerevisiae; assay: Antimicrobial activity against Saccharomyces cerevisiae BY4742 containing Aspergillus fumigatus fks1delta453-649 hybrid after 24 hrs by broth microdilution assay; details: BY4742, 24 h
[12] = system: Saccharomyces cerevisiae; assay: Antimicrobial activity against Saccharomyces cerevisiae BY4742 fks1delta617-649::URA3 deletant after 24 hrs by broth microdilution assay; details: BY4742, 24 h
[13] = system: Saccharomyces cerevisiae; assay: Antimicrobial activity against Saccharomyces cerevisiae BY4742 containing Fusarium solani fks1-FS453-649 with F639 mutant after 24 hrs by broth microdilution assay; details: BY4742, 24 h
[14] = system: Nakaseomyces glabratus; assay: Antimicrobial activity against Candida glabrata containing fsk2-L588P/F639V mutant after 24 hrs by broth microdilution assay

Row | Compound | MIC [1] | MIC [2] | MIC [3] | MIC [4] | MIC [5] | MIC [6] | MIC [7] | MIC [8] | MIC [9] | MIC [10] | MIC [11] | MIC [12] | MIC [13] | MIC [14]
1 | CC[C@H](C)C[C@H](C)CCCCCCCCC(=O)N[C@H]1C[C@@H](O)[C@@H](NCCN)NC(=O)[C@@H]2[C@@H](O)CCN2C(=O)[C@H]([C@H](O)CCN)NC(=O)[C@H]([C@H](O)[C@@H](O)c2ccc(O)cc2)NC(=O)[C@@H]2C[C@@H](O)CN2C(=O)[C@H]([C@@H](C)O)NC1=O [CASPOFUNGIN] | 0.5 µg/mL (≈ 0.457 µM) | 0.031 µg/mL (≈ 0.0284 µM) | 0.008 µg/mL (≈ 0.00732 µM) | 0.008 µg/mL (≈ 0.00732 µM) | 0.062 µg/mL (≈ 0.0567 µM) | 0.25 µg/mL (≈ 0.229 µM) | 0.25 µg/mL (≈ 0.229 µM) | 0.031 µg/mL (≈ 0.0284 µM) | 0.008 µg/mL (≈ 0.00732 µM) | 0.031 µg/mL (≈ 0.0284 µM) | 0.002 µg/mL (≈ 0.00183 µM) | 0.002 µg/mL (≈ 0.00183 µM) | 0.001 µg/mL (≈ 0.000915 µM) | 0.5 µg/mL (≈ 0.457 µM)
2 | CCCCCOc1ccc(-c2cc(-c3ccc(C(=O)N[C@H]4C[C@@H](O)[C@@H](O)NC(=O)[C@@H]5[C@@H](O)[C@@H](C)CN5C(=O)[C@H]([C@H](O)CC(N)=O)NC(=O)[C@H]([C@H](O)[C@@H](O)c5ccc(O)c(OS(=O)(=O)O)c5)NC(=O)[C@@H]5C[C@@H](O)CN5C(=O)[C@H]([C@@H](C)O)NC4=O)cc3)no2)cc1 [MICAFUNGIN] (X1-[Orn(4R-OH,5R-OH)]T[Hyp][hTyr(3S-OH,4S-OH,3'-OSO3H)][Gln(3R-OH)][Pro(3S-OH,4S-Me)]; lactam 1-C) | 0.5 µg/mL (≈ 0.394 µM) | 0.062 µg/mL (≈ 0.0488 µM) | 0.031 µg/mL (≈ 0.0244 µM) | 0.031 µg/mL (≈ 0.0244 µM) | 0.031 µg/mL (≈ 0.0244 µM) | 0.062 µg/mL (≈ 0.0488 µM) | 0.25 µg/mL (≈ 0.197 µM) | 0.016 µg/mL (≈ 0.0126 µM) | 0.031 µg/mL (≈ 0.0244 µM) | 0.062 µg/mL (≈ 0.0488 µM) | 0.062 µg/mL (≈ 0.0488 µM) | 0.062 µg/mL (≈ 0.0488 µM) | 0.008 µg/mL (≈ 0.0063 µM) | 0.062 µg/mL (≈ 0.0488 µM)
